Where “and” joins values, the source holds several entries; their conditions need not be identical. Equal entries are not always repeated. Entries after “also recorded” stand apart in the source; their conditions may differ.
Assays:
HprT = test system: HprT; parameters: method as in ref 46 (Table S1 ref 3); settings: ref 46 (Table S1 ref 3); read-out: IC50, B. subtilis HprT; cited from earlier work
ObgE = ObgE (Escherichia coli, UniProt P42641); parameters: method as in Table S1 (7); settings: ref Table S1 (7); cited from earlier work
ObgE, sequence (P42641 whole entry): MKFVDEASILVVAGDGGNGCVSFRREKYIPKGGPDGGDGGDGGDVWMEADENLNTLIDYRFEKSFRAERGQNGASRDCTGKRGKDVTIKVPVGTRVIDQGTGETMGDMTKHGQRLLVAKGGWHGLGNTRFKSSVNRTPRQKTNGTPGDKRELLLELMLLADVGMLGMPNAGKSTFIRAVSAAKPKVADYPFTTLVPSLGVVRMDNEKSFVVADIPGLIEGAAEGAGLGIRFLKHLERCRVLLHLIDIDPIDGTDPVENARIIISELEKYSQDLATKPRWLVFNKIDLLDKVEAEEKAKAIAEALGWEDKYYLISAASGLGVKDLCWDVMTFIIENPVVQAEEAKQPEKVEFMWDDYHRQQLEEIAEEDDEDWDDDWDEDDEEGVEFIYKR

Gpt = Gpt (Escherichia coli, UniProt P0A9M5); parameters: method as in ref 29-32 (Table S1 refs 1, 2); settings: ref 29-32 (Table S1 refs 1, 2); cited from earlier work
Gpt, sequence (P0A9M5 whole entry): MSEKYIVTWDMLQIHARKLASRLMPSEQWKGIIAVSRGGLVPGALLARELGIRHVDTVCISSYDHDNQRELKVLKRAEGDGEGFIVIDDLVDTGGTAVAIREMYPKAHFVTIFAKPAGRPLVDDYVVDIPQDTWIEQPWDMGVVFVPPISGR

SaDer = SaDer (Staphylococcus aureus, UniProt A6QH24); experiment: DRaCALA Kd determination, SaDer; type: binding, S. aureus
SaDer, sequence (A6QH24 whole entry): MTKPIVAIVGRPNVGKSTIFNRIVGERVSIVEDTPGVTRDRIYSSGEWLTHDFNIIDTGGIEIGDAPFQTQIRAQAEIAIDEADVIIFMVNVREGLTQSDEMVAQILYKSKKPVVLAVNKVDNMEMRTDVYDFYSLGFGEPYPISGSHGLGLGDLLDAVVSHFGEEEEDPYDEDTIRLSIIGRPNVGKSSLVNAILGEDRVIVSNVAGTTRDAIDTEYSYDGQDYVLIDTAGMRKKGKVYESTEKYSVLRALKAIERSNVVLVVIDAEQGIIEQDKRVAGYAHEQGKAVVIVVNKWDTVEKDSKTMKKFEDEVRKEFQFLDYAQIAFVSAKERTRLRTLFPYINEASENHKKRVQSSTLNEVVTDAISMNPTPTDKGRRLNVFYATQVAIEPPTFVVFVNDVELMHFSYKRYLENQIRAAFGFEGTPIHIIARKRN
Method: For Kd measurements by DRaCALA, 2-fold serial dilutions from the highest possible concentrations of each purified protein were prepared in binding buffer B, and approximately 2 nM concentrations of α-^32P-labeled ppGpp, pppGpp, GTP, and GDP were added. The mixtures were incubated for 5 min at RT before spotting of 2 µl of the reaction mixtures onto nitrocellulose membranes. The fractions of bound ligand and the apparent Kd values were calculated as previously described ([37]).

RelA = test system: RelA; parameters: method as in ref 36 (Table S1 ref 16); settings: ref 36 (Table S1 ref 16); cited from earlier work
[1] = target: SaRF3 (PrfC from S. aureus) (Staphylococcus aureus, UniProt A6QFN0); experiment: DRaCALA binding, SaRF3; settings: 12 µM protein
SaRF3 (PrfC from S. aureus), sequence (A6QFN0 whole entry): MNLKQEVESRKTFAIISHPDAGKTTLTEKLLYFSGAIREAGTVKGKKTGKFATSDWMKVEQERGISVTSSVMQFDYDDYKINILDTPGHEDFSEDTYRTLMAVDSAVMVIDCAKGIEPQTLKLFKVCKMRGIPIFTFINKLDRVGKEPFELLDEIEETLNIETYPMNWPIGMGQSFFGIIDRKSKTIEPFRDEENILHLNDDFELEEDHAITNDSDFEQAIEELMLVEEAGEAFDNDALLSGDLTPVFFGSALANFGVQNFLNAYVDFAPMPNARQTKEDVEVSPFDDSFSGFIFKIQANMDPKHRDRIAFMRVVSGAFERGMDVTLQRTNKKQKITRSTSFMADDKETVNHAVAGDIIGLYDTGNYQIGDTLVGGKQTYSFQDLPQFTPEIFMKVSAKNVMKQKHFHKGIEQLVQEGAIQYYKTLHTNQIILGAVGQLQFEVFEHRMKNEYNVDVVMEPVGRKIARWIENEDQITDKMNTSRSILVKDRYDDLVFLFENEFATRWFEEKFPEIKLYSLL

Gmk = test system: Gmk; parameters: method as in Table S1 (3); settings: ref Table S1 (3); read-out: IC50, B. subtilis Gmk; cited from earlier work
LepA = LepA (Escherichia coli, UniProt P60785); experiment: DRaCALA binding curves, purified LepA; parameters: species or system E. coli; settings: Kd could not be determined
LepA, sequence (P60785 whole entry): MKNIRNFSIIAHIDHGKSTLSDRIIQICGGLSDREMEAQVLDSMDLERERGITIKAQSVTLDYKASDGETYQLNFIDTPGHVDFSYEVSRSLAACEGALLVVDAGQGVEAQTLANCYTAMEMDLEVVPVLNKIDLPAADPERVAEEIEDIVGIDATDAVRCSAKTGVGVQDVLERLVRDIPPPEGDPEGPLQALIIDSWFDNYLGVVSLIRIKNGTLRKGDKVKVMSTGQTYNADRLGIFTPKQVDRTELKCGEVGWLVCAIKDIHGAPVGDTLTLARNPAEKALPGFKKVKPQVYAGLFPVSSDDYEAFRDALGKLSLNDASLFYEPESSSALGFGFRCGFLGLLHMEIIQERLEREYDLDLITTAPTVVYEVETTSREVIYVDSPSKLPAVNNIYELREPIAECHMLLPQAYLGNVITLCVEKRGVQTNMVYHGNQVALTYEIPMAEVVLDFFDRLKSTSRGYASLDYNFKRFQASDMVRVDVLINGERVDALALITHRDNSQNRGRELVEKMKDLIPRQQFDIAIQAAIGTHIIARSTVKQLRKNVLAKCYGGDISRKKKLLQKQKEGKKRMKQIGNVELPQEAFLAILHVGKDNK
Method: For Kd measurements by DRaCALA, 2-fold serial dilutions from the highest possible concentrations of each purified protein were prepared in binding buffer B, and approximately 2 nM concentrations of α-^32P-labeled ppGpp, pppGpp, GTP, and GDP were added. The mixtures were incubated for 5 min at RT before spotting of 2 µl of the reaction mixtures onto nitrocellulose membranes. The fractions of bound ligand and the apparent Kd values were calculated as previously described ([37]). For competition assays, purified proteins at the specified concentrations were incubated with 2 nM [α-^32P]ppGpp or [α-^32P]pppGpp in the presence of 100 μM competitor nucleotides in binding buffer B. The reaction mixtures were incubated for 5 min at RT, 2 µl was spotted onto nitrocellulose membranes, and the values corresponding to the bound fractions were determined. EDTA was added at excess concentrations as specified for each case.

Nc1nc2c(ncn2[C@@H]2O[C@H](COP(=O)(O)OP(=O)(O)O)[C@@H](OP(=O)(O)OP(=O)(O)O)[C@H]2O)c(=O)[nH]1 [ppGpp, guanosine tetraphosphate]
IC50 (HprT): 11 µM | Ki (ObgE): 1.6 µM | IC50 (Gpt): ~85 µM and 85 µM | Kd (SaDer): 3.8 ± 0.5 µM | effect on RelA activity (RelA): allosterically stimulates | binding to SaRF3 [1]: very weak binding (if any); also recorded: No binding of ppGpp by 12 µM of PrfC from S. aureus | IC50 (Gmk): 20 µM | relative binding to LepA (binding curves) (LepA): tighter binding of ppGpp than pppGpp; also recorded: ND; stronger binding to ppGpp than pppGpp

Source: article PMC5845004, “Novel (p)ppGpp Binding and Metabolizing Proteins of Escherichia coli” (mBio, 2018)
